# Measured values: patent publication US12097192B2 (Corcept Therapeutics Incorporated, priority 2019, dated 2024)
# Tests used:
# [1] = system: Cushing's syndrome patients; experiment: Cushing's syndrome patient study: absolute eosinophils and lymphocytes; format: in vivo, human; conditions: All Subjects, mITT
# Excerpt: All patients gave informed consent before participating in any study-related procedures. […] The study protocol called for patient visits to the study site at screening, on Day 1 (baseline), Weeks 2, 4, 6, 8, 10, and 12, and after a 4-week follow-up period for Group 1. For Group 2, the protocol called for patient visits to the study site at screening, on Day 1 (baseline), Weeks 2, 4, 6, 8, 10, 12, 14, and 16, and after a 4-week follow-up period. Patient dosing will be done at home, except on days of study visits. […] The safety protocol also included assessments by physical examination findings, vital signs, ECG results, pregnancy tests, clinical laboratory test results (hematology and chemistry panels), adverse events (AEs), and concomitant medications. […] It ignores noncompliance, protocol deviations, withdrawal, and anything that happens after randomization. In contrast, per-protocol (PP) analysis refers to inclusion in the analysis of only those patients who strictly adhered to the protocol. The PP analysis provides an estimate of the true efficacy of an intervention, i.e., among those who completed the treatment as planned.
# [2] = system: Cushing's syndrome patients; experiment: Cushing's syndrome patient study: hypertension response (24-hour ambulatory blood pressure); format: in vivo, human
# Description: All patients gave informed consent before participating in any study-related procedures.
# Response criteria for hyperglycemia were changes from baseline in glucose tolerance as measured by: ≥0.5% decrease in HbA1c, normalization or ≥50 mg/dL decrease in 2-hr OGTT glucose, or decrease in total daily insulin (≥25%) or sulfonylurea dose (≥50%). Response criteria for hypertension (HTN) was a ≥5 mm Hg decrease in mean systolic and/or diastolic blood pressure (SBP/DBP).
# Response was based on ≥0.5% reduction of HbA1c associated with reduction or discontinuation of diabetes medications or clinically significant reduction (≥50 mg/dL decrease) or normalisation of the 2-hour glucose measurement from an oral glucose tolerance test (OGTT).
# progesterone receptor = biological target: T1, progesterone receptor (Homo sapiens, UniProt P06401); experiment: Progesterone receptor affinity / binding
# T1 sequence (P06401 1-933): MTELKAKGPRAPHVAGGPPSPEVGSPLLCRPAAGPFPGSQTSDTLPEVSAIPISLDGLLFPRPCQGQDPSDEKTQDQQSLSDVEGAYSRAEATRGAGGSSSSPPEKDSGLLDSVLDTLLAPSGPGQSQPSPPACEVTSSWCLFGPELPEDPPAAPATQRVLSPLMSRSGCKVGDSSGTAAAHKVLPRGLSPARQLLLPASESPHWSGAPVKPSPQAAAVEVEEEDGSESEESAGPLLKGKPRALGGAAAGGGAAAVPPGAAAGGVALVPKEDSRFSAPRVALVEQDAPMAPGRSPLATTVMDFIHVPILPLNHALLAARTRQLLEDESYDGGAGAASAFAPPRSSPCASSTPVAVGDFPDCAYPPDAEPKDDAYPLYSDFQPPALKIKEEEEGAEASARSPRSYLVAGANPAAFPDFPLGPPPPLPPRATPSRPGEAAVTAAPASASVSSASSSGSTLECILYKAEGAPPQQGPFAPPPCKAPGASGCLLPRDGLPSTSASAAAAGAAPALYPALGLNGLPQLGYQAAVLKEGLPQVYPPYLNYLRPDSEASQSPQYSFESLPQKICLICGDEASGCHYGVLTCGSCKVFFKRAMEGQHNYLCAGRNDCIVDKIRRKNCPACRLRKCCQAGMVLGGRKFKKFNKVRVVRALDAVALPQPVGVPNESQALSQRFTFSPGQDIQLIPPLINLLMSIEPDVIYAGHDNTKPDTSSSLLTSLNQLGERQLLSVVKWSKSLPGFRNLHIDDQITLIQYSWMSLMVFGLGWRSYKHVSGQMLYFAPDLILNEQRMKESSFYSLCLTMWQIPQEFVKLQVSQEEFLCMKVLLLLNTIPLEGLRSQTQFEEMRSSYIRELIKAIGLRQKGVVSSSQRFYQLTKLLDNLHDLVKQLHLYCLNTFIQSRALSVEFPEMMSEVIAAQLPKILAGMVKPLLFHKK
# [3] = system: other nuclear steroid hormone receptors; experiment: Binding to other nuclear steroid hormone receptors
# [4] = system: Cushing's syndrome patients; experiment: Phase 2 CORT125134-451 study in Cushing syndrome: overall clinical efficacy; format: in vivo, human
# Description: All patients gave informed consent before participating in any study-related procedures. […] Response criteria for hyperglycemia were changes from baseline in glucose tolerance as measured by: ≥0.5% decrease in HbA1c, normalization or ≥50 mg/dL decrease in 2-hr OGTT glucose, or decrease in total daily insulin (≥25%) or sulfonylurea dose (≥50%). Response criteria for hypertension (HTN) was a ≥5 mm Hg decrease in mean systolic and/or diastolic blood pressure (SBP/DBP). […] The efficacy of the drug in Cushing syndrome was assessed based on the improvement of morbidities associated with excess cortisol activity, e.g. hyperglycaemia, hypertension, cognitive dysfunction, depression, poor quality of life, hypercoagulopathy and obesity. (A morbidity associated with excess cortisol, e.g., associated with hypercortisolemia, Cushing's syndrome, Cushing's disease, etc., is also termed a “comorbidity”.)
# [5] = Group 1 (100-200 mg/day, 12 weeks)
# [6] = Group 2 (250-400 mg/day, 16 weeks)
structure (smiles),measurement,setting,value
"Cn1cc(S(=O)(=O)N2CCC3=Cc4c(cnn4-c4ccc(F)cc4)C[C@]3(C(=O)c3cc(C(F)(F)F)ccn3)C2)cn1 [relacorilant, (R)-(1-(4-fluorophenyl)-6-((1-methyl-1H-pyrazol-4-yl)sulfonyl)-4,4a,5,6,7,8-hexahydro-1H-pyrazolo[3,4-g]isoquinolin-4a-yl) (4-(trifluoromethyl)pyridin-2-yl)methanone]",Absolute Eosinophils mean change from Baseline to Last Observed,[1]; [5],0.05 10^{super 9
same,Absolute Lymphocytes mean change from Baseline to Last Observed,[1]; [5],−0.15 10^{super 9
same,Absolute Eosinophils mean change from Baseline to Last Observed,[1]; [6],0.05 10^{super 9
same,Absolute Lymphocytes mean change from Baseline to Last Observed,[1]; [6],0.26 10^{super 9
same,Absolute Eosinophils mean change from Baseline to Last Observed,[1]; Overall,0.05 10^{super 9
same,Absolute Lymphocytes mean change from Baseline to Last Observed,[1]; Overall,0.05 10^{super 9
same,hypertension response rate (≥5 mmHg reduction),"[2]; HD group (doses up to 400 mg daily), week 16",63.6%
same,hypertension response rate (≥5 mmHg reduction),"[2]; LD group (doses up to 200 mg daily), week 12",41.7%
same,nocturnal and daytime blood pressures,[2]; hypertension responders,clinically significant improvement
same,binding to the progesterone receptor,progesterone receptor,lack of binding to the progesterone receptor
same,progesterone receptor affinity,progesterone receptor; evidence from Cushing's syndrome patient study,no evidence of relacorilant having any progesterone receptor affinity
same,binding to other nuclear steroid hormone receptors,[3],does not bind
same,reduction of the effects of excess cortisol,[4]; Cushing's syndrome patients,effective in reducing many of the effects of excess cortisol
same,time to improvement in hyperglycaemia and hypertension,[4]; after achieving a therapeutic dose,within two weeks
same,clinical effect on hyperglycemia and hypertension,[4]; dosages up to 400 mg/day,clinical improvement in hyperglycemia and hypertension
same,"secondary endpoints: hypercoagulopathy, liver function, serum osteocalcin, cognitive function, depression, quality of life",[4]; high-dose group,statistically significant improvements
same,efficacy relative to previous metyrapone therapy (primary and secondary endpoints),[4]; two patients treated previously with metyrapone,higher efficacy
